How the values were obtained:
Format in all cases: cell-based
[1] = test system: NO release in Raw264.7 cells; test: Griess assay, inhibition of nitric oxide release; settings: for NO Inhibition rate (%): 100 ng/mL LPS and compounds 24 hours, compared with control group; for inhibitory effect on NO release, in words, compared with Compound 1d: 100 ng/mL LPS, 24 hours
Method: Thus, the Griess assay was used to measure nitric oxide secretion for inflammation inhibition in Raw264.7 cells.
Raw 264.7 macrophage cell was cultured in Dulbecco Modified Eagle Medium (DMEM) with 10% (v/v) fetal bovine serum (FBS) and 1% (v/v) antibiotic-anti mycotic solution.
Cell was maintained in a 100 mm cell culture dish under cell culture conditions (5% CO2 incubator at 37° C. with humidified atmosphere).
Griess assay reagent was generated prior to the assay with the following contents listed below: N-(1-naphthyl) ethylenediamine dihydrochloride, 0.1% (m/v); sulfanilamide, 1% (m/v); phosphoric acid (85%); 5% (v/v) in deionized water.
Raw 264.7 cell was seeded in transparent 96-well plate and maintained for 1 day. Media was aspirated, and each well was washed with serum free DMEM for twice. Each well was refilled with serum-free DMEM.
Then 100 ng/mL LPS and compounds were treated afterward and cultured for 24 hours. After the incubation, the supernatant culture media was transferred to new 96-well plate and mixed with 50 μL of Griess assay reagent.
Media-reagent mixture was incubated at room temperature for several minutes. Absorbance was read at 548 nm. Four wells each were used for the control experiment, LPS and DMSO (without any compounds) treated well, and DMSO-only treated well. Blank values were measured.
Blank values were measured by mixing 50 μL of Griess assay reagent with […] and 1% antibiotic-antimycotic containing DMEM.
As for the compounds in which the double bond of the tetrahydropyridazine ring in Compound 1d is moved or eliminated, the inhibition rate of NO release was measured in the same manner as in Test Example 2.
The inhibition rate of NO release for Compounds 2a to 2o prepared in Example 2 was tested in order to confirm the anti-inflammatory effect for the above compounds.

Raw 264.7 cell = test: WST (water-soluble tetrazolium) analysis, relative cell viability; settings: 100 ng/mL LPS and compounds 24 hours
Method: Relative cell viability of Compound 2a to 2o prepared in Examples 2 was measured by WST (water-soluble tetrazolium) analysis.
Raw 264.7 cell was seeded in transparent 96-well plate and maintained for 1 day.
Media was aspirated, and each well was washed with serum free DMEM for twice. Each well was refilled with serum-free DMEM. Then, 100 ng/mL LPS and compounds were treated afterward and cultured for 24 hours. After the incubation, the supernatant culture media was transferred to new 96-well plate.
Immediately after transferring media, cell-seeded wells were refilled with 100 μL of 10% FBS and 1% antibiotic-antimycotic containing DMEM. Then, 10 μL of Ez-cytox WST assay reagent was used to treat each well, following the manufacturer's protocol.
After incubating for 20 min in a 5% CO2 incubator at 37° C. with humidified atmosphere, absorbance was read at 450 nm.
Blank values were obtained from the well only treated with 10% FBS and 1% antibiotic-antimycotic containing DMEM.

[2] = test system: TNF-α secretion in Raw264.7 cell; test: ELISA of secreted TNF-α; settings: Mus musculus, LPS 100 ng/mL, compounds 10 μM, read-out: TNF-α Inhibition Rate (%)
Method: Thus, in order to additionally confirm the inflammation inhibitory effects of Compounds 2f to 2l, the inhibition rate of TNF-α secretion was quantitatively measured by ELISA.
Cells were treated with each Compound 1d, or 2f to 2l, and LPS for 24 hours, followed by ELISA for TNF-α present in the culture solution.
In order to measure the amount of secreted TNF-α, Raw264.7 cell was seeded in transparent 96-well plate and maintained for 1 day. Media was aspirated after 1 day and replaced to serum-free DMEM with 1% (v/v) antibiotic-antimycotic solution. LPS and compounds were treated in a final concentration of 100 ng/mL and 10 μM.
Standard curve was plotted by the dose-dependent treatment of the control TNF-α protein provided with the ELISA kit. Blank value was measured by adding solutions without TNF-α substrate.
The TNF-α secretion inhibition rate of Compounds 1d, and 2f to 2l was confirmed, when compared with control groups.

Compound | NO Inhibition rate (%) [1] | inhibitory effect on NO release, in words, compared with Compound 1d [1] | Relative Cell Viability (%) (Raw 264.7 cell) | inhibition at 10 µM [2]
CC1(C)Oc2ccccc2C2C1=CCn1c(=O)n(-c3ccccc3)c(=O)n12 (stereo not shown) [Compound 1a] | 83% |  |  | 
CNc1ccc2c(c1)OC(C)(C)C1=CCn3c(=O)n(-c4ccccc4)c(=O)n3C12 (stereo not shown) [Compound 1b] | 52% |  |  | 
CC1(C)Oc2cc(F)ccc2C2C1=CCn1c(=O)n(-c3ccccc3)c(=O)n12 (stereo not shown) [Compound 1c] | 79% |  |  | 
COc1ccc2c(c1)OC(C)(C)C1=CCn3c(=O)n(-c4ccccc4)c(=O)n3C12 (stereo not shown) [Compound 1e] | 44% |  |  | 
COc1ccc2c(c1)C1C(=CCn3c(=O)n(-c4ccccc4)c(=O)n31)C(C)(C)O2 (stereo not shown) [Compound 1f] | 55% |  |  | 
COc1cc2c(cc1OC)C1C(=CCn3c(=O)n(-c4ccccc4)c(=O)n31)C(C)(C)O2 (stereo not shown) [Compound 1g] | 44% |  |  | 
COc1ccc2c(c1O)OC(C)(C)C1=CCn3c(=O)n(-c4ccccc4)c(=O)n3C12 (stereo not shown) [Compound 1h] | 26% |  |  | 
CCCN1CCC2(CC1)Oc1cc(O)ccc1C1C2=CCn2c(=O)n(-c3ccccc3)c(=O)n21 (stereo not shown) [Compound 1i] | 47% | significantly reduced |  | 
CC(=O)N1CCC2(CC1)Oc1cc(O)ccc1C1C2=CCn2c(=O)n(-c3ccccc3)c(=O)n21 (stereo not shown) [Compound 1j] | 36% | significantly reduced |  | 
Cn1c(=O)n2n(c1=O)C1C(=CC2)C(C)(C)Oc2cc(O)ccc21 (stereo not shown) [Compound 2a] | 45% |  | 114% | 
CC1(C)Oc2cc(O)ccc2C2C1=CCn1c(=O)n(Cc3ccccc3)c(=O)n12 (stereo not shown) [Compound 2b] | 70% |  | 106% | 
CC1(C)Oc2cc(O)ccc2C2C1=CCn1c(=O)n(C3CCCCC3)c(=O)n12 (stereo not shown) [Compound 2c] | 63% |  | 117% | 
CC1(C)Oc2cc(O)ccc2C2C1=CCn1c(=O)n(-c3ccccc3I)c(=O)n12 (stereo not shown) [Compound 2d] |  |  | 109% | 
COc1ccccc1-n1c(=O)n2n(c1=O)C1C(=CC2)C(C)(C)Oc2cc(O)ccc21 (stereo not shown) [Compound 2e] |  |  | 115% | 
COc1cccc(-n2c(=O)n3n(c2=O)C2C(=CC3)C(C)(C)Oc3cc(O)ccc32)c1 (stereo not shown) [Compound 2f] | 96% |  | 118% | 38%
COc1ccc(-n2c(=O)n3n(c2=O)C2C(=CC3)C(C)(C)Oc3cc(O)ccc32)cc1 (stereo not shown) [Compound 2g] | 89% |  | 127% | 44%
CC1(C)Oc2cc(O)ccc2C2C1=CCn1c(=O)n(-c3ccc(F)cc3)c(=O)n12 (stereo not shown) [Compound 2h] | 87% |  | 109% | 44%
Cc1ccc(-n2c(=O)n3n(c2=O)C2C(=CC3)C(C)(C)Oc3cc(O)ccc32)cc1 (stereo not shown) [Compound 2i] | 94% |  | 130% | 45%
CC1(C)Oc2cc(O)ccc2C2C1=CCn1c(=O)n(-c3ccc4c(c3)OCO4)c(=O)n12 (stereo not shown) [Compound 2k] | 92% |  | 121% | 46%
CC1(C)Oc2cc(O)ccc2C2C1=CCn1c(=O)n(-c3ccc(C(F)(F)F)cc3)c(=O)n12 (stereo not shown) [Compound 2m] | 85% |  | 106% | 
CC1(C)Oc2cc(O)ccc2C2C1=CCn1c(=O)n(-c3ccc(C(C)(C)C)cc3)c(=O)n12 (stereo not shown) [Compound 2n] | 99% |  | 105% | 
CCCCc1ccc(-n2c(=O)n3n(c2=O)C2C(=CC3)C(C)(C)Oc3cc(O)ccc32)cc1 (stereo not shown) [Compound 2o] | 99% |  | 50% | 
